Experimental data as given in US20040048816A1, “Restenosis treatment” (priority 2000, published 2004).

What was measured:
[1] = test system: primary human coronary smooth muscle cells; test: Flow cytometry of apoptosis in cultured SMCs (FITC-Annexin V / PI double staining); format: cell-based
Description: The effect of IFNγ on the survival of cultured proliferating SMCs was analyzed by flow cytometry. For this reason primary human coronary smooth muscle cells were obtained from CellSystems (Germany) and were grown in Smooth muscle cell growth medium (CellSystems) containing 5% fetal calf serum (CellSystems) at 37° C. in a humidified atmosphere of 5% CO2. SMCs were used between passages 2 and 4. Treatment with 1000 U/ml rh-IFNγ (R&D Systems) was performed for 16 h. For induction of cell death, SMCs were incubated at 37° C. for 1 h in HBSS containing 100 μmol/l H2O2 and 100 μmol/l ferrous sulfate. Afterwards the cells were further cultured in freshly prepared culture medium for 8 h. Cells were labelled with FITC-labelled Annexin V (Roche Diagnostics) and propidium iodide (PI) according to the manufacturer's instructions. 10^4 events were analyzed with a flow cytometer (Becton Dickinson).

[2] = test system: human coronary artery smooth muscle cells (CASMC); test: Transcriptome analysis (cDNA arrays) of treated cultured CASMC; format: cell-based; details: 1000 U/ml IFN-γ, 16 hours, 37° C.
Description: To adapt the transcriptional profile of cultured human coronary artery smooth muscle cells (CASMC) (Clonetics) to that of neointima, CASMC were stimulated with IFN-g and performed transcriptome analysis as described above. CASMC were cultured as described in the manufacter's manual in growth medium until 50% confluency was reached. Afterwards cells were stimulated with 1000 U/ml IFN-γ (R&D, Germany) for 16 hours at 37° C. Cells were washed twice in PBS and RNA preparation, cDNA synthesis and amplification and transcriptome analysis was performed as described above.
As proliferating CASMC overexpress FKBP12 like neointima, this cell line can be employed as a potential surrogate cell line for neointima in respect to therapeutic effects of rapamycin. Therefore, in a first step, CASMC were incubated with lo0ng/ml rapamycin (Sigma) for 24 hours and transcriptome analysis was performed in order to monitore the therapeutic effect.
Afterwards, microscopic specimen of in-stent restenotic tissue are incubated with rapamycin and transcriptome analysis was performed as described herein above. Transcriptome/gene expression pattern of rapamycin treated CASMC was compared to the transcriptome of rapamycin-treated neointima to measured the effectiveness of CASMC as a surrogate cell line for neointima.

[3] = target: T1, glycoprotein IIb/IIIa (Homo sapiens, UniProt P05106+P08514); details: at 30 days after surgery; versus 10.6%; cited from earlier work
T1 construct: host or cells: patients in clinical trials (endogenous protein)

Substance | spontaneous apoptosis (apoptotic cells) ([1]; SMCs after 1000 U/ml rh-IFNγ for 16 h, untreated 10%) [%] | number of apoptotic cells after induction of apoptosis with H2O2 ([1]; SMCs, 1000 U/ml rh-IFNγ 16 h, then 100 μmol/l H2O2, without IFNγ 54%) [%] | gene expression pattern of CASMCs after incubation [2] | death rate, myocardial infarction and/or target vessel vascularization [3] [%]
IFNγ: recombinant human interferon γ (R&D Systems), a cytokine mainly produced by T-lymphocytes | 6 | 27 | neointima-specific IFN-γ gene expression pattern could be generated | –
abciximab: monoclonal antibody recognizing glycoprotein IIb/IIIa | – | – | – | 5.3
